The first test has as its target AURKB (human) (UniProt Q96GD4). As to the kind of experiment: radiometric filter-binding kinase assay, Kinase HotSpot. Particulars: compound 0.5 µM; ATP 10 µM.
Sequence of PASK (human) (Q96RG2 whole entry, looked up): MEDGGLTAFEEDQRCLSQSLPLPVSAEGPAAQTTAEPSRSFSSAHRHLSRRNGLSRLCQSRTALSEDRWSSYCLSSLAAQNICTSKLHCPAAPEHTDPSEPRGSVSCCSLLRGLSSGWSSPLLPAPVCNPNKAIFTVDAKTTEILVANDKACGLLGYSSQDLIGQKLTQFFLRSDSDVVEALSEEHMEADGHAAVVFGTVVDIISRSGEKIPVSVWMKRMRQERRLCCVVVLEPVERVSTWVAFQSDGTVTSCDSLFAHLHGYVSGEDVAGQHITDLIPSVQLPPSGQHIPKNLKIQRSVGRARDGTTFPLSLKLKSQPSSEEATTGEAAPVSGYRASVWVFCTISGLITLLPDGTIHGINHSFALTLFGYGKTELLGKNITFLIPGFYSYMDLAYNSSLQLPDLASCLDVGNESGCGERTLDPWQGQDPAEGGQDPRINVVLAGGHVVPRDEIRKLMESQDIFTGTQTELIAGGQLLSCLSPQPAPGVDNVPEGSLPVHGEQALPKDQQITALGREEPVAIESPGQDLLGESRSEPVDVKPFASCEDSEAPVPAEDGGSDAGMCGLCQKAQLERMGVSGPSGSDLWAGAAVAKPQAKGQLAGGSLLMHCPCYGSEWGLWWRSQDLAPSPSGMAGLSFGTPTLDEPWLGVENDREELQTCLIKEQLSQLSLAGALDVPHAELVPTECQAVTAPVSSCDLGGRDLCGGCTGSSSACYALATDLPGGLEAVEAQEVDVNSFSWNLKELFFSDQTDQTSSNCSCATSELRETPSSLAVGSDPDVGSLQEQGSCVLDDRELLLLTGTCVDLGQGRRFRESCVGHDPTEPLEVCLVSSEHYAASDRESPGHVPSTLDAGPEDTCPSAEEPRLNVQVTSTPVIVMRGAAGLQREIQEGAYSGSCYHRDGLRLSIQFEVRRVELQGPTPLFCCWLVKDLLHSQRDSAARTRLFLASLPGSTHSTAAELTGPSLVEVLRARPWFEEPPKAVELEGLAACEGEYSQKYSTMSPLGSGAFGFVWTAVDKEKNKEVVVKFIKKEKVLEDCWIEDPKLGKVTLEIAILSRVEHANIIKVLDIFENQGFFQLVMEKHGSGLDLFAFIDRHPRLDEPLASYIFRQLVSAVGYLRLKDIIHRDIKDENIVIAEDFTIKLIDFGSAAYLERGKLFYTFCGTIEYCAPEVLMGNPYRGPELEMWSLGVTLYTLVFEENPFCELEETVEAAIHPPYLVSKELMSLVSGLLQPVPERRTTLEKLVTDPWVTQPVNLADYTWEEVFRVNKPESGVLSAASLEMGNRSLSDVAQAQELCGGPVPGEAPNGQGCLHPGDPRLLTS
Sequence of TYK2 JH1 catalytic (human) (P29597 whole entry, looked up): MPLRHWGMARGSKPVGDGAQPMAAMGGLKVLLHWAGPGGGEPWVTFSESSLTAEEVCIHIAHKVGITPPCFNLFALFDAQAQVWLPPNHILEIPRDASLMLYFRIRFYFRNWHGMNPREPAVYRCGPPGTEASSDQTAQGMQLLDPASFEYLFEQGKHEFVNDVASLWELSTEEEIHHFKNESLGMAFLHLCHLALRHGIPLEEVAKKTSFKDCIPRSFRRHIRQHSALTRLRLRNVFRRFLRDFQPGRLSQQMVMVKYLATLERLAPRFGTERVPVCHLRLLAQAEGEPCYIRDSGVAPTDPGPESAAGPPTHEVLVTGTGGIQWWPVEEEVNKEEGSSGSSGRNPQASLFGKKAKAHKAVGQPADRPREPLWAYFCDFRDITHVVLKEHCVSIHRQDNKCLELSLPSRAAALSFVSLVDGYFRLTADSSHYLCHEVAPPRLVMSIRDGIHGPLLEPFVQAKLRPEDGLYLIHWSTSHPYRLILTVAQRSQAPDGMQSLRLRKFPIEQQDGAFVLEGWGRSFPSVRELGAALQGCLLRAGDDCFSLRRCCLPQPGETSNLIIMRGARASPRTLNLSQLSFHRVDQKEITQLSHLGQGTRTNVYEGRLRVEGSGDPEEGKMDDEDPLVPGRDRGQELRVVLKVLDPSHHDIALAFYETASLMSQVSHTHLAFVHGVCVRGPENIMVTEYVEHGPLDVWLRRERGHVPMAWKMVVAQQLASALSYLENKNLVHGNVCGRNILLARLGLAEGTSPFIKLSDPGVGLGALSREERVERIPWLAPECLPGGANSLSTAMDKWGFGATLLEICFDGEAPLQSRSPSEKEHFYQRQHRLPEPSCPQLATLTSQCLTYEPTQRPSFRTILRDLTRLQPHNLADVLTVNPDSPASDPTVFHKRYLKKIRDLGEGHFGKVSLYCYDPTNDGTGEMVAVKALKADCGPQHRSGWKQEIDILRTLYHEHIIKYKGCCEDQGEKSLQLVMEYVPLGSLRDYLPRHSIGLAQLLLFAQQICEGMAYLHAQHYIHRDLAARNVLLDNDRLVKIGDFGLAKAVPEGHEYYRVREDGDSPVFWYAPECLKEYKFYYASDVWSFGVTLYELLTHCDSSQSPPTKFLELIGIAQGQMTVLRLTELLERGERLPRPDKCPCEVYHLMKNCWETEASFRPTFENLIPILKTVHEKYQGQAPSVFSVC
Sequence of MAP2K1 (human) (Q02750 whole entry, looked up): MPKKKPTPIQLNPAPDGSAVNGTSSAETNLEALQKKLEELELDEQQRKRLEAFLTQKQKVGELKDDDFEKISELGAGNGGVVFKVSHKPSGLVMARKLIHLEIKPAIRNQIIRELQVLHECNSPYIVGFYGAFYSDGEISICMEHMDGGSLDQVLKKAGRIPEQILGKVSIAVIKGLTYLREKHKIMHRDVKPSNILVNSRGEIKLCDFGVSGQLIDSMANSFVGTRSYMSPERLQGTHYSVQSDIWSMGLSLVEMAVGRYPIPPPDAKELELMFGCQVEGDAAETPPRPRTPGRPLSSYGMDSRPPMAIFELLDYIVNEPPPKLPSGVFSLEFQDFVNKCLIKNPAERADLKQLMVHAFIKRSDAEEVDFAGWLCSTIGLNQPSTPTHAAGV
With `c1ccc(-c2n[nH]c3c2oc2ccccc23)cc1`, the residual activity was determined as 50.8%.
For `CC#CC(=O)Nc1cc2c(Nc3ccc(F)c(Cl)c3)ncnc2cn1`, the residual activity stood at 101%.
The same measure, in the same setting: to `Nc1ncnc2c1c(-c1ccc(Oc3ccccc3)cc1)cn2C1CCCC1` belongs 88.6%.

A further test concerns the target BRAF (human) (UniProt P15056). Described as above. As to conditions: compound 0.5 µM; ATP 10 µM.
As to `c1ccc(-c2n[nH]c3c2oc2ccccc23)cc1`, the residual activity was determined as 96.9%.
As to `CC#CC(=O)Nc1cc2c(Nc3ccc(F)c(Cl)c3)ncnc2cn1`, the residual activity was 82.1%.
On the same count and under the same terms, to `Nc1ncnc2c1c(-c1ccc(Oc3ccccc3)cc1)cn2C1CCCC1` belongs 85.4%.

Another test has as its target TYK2 JH1 catalytic (human) (UniProt P29597). Described as above. As to conditions: compound 0.5 µM; ATP 10 µM.
Turning to `c1ccc(-c2n[nH]c3c2oc2ccccc23)cc1`, the residual activity came out at 89.2%.
For the compound `CC#CC(=O)Nc1cc2c(Nc3ccc(F)c(Cl)c3)ncnc2cn1`, the residual activity amounted to 106%.
As to `Nc1ncnc2c1c(-c1ccc(Oc3ccccc3)cc1)cn2C1CCCC1`, the residual activity is 98.5%.

For the next test, the target named is CDK1 CCNA2 (human) (UniProt P06493+P20248). Described as above. As to conditions: compound 0.5 µM; ATP 10 µM.
For `c1ccc(-c2n[nH]c3c2oc2ccccc23)cc1`, the residual activity worked out at 94.1%.
As for `CC#CC(=O)Nc1cc2c(Nc3ccc(F)c(Cl)c3)ncnc2cn1`, the residual activity is 96.5%.
Same read-out and setting: to `Nc1ncnc2c1c(-c1ccc(Oc3ccccc3)cc1)cn2C1CCCC1` belongs 93.7%.

The next test concerns the target PASK (human) (UniProt Q96RG2). The test is described as above. As to conditions: compound 0.5 µM; ATP 10 µM.
`c1ccc(-c2n[nH]c3c2oc2ccccc23)cc1`: the residual activity is 97.4%.
Consider `CC#CC(=O)Nc1cc2c(Nc3ccc(F)c(Cl)c3)ncnc2cn1`, for which the residual activity is 101%.
Turning to `Nc1ncnc2c1c(-c1ccc(Oc3ccccc3)cc1)cn2C1CCCC1`, the residual activity is 98.5%.

Another test deals with RPS6KA3 KD1 KD2 (human) (UniProt P51812). The test is described as above. Particulars: compound 0.5 µM; ATP 10 µM.
Sequence of RPS6KA3 KD1 KD2 (human) (P51812 whole entry, looked up): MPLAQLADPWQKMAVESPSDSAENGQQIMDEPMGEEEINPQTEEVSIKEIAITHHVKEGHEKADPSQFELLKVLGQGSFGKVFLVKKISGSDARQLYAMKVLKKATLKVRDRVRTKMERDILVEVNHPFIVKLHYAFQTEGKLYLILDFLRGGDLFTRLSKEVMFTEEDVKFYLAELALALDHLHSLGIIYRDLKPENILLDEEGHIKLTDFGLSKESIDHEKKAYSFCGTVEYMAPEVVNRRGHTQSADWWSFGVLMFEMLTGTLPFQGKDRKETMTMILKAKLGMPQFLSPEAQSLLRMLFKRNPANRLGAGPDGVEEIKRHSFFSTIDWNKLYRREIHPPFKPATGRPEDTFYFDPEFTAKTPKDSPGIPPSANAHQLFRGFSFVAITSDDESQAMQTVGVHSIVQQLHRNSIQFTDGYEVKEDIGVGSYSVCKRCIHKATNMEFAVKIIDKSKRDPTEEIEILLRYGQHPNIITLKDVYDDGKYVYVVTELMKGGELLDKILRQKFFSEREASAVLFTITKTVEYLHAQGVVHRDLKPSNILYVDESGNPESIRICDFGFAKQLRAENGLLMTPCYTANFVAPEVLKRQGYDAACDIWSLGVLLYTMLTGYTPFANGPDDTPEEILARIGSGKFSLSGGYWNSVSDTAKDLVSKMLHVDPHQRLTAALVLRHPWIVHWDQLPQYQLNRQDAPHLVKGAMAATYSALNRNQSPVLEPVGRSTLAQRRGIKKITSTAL
On to `c1ccc(-c2n[nH]c3c2oc2ccccc23)cc1`, for which the residual activity worked out at 109%.
Turning to `CC#CC(=O)Nc1cc2c(Nc3ccc(F)c(Cl)c3)ncnc2cn1`, the residual activity was determined as 97.5%.
On to `Nc1ncnc2c1c(-c1ccc(Oc3ccccc3)cc1)cn2C1CCCC1`, for which the residual activity came out at 96.9%.

For the next test, the target named is MARK2 (human) (UniProt Q7KZI7). Described as above. Particulars: compound 0.5 µM; ATP 10 µM.
With `c1ccc(-c2n[nH]c3c2oc2ccccc23)cc1`, the residual activity was 92.9%.
With `CC#CC(=O)Nc1cc2c(Nc3ccc(F)c(Cl)c3)ncnc2cn1`, the residual activity stood at 105%.
For `Nc1ncnc2c1c(-c1ccc(Oc3ccccc3)cc1)cn2C1CCCC1`, the residual activity stood at 86.4%.

A further test deals with MYLK (human) (UniProt Q15746). The test is described as above. As to conditions: compound 0.5 µM; ATP 10 µM.
In the case of `c1ccc(-c2n[nH]c3c2oc2ccccc23)cc1`, the residual activity is 86.1%.
Take `CC#CC(=O)Nc1cc2c(Nc3ccc(F)c(Cl)c3)ncnc2cn1`: the residual activity was found to be 98.8%.
With `Nc1ncnc2c1c(-c1ccc(Oc3ccccc3)cc1)cn2C1CCCC1`, the residual activity was determined as 98.4%.

A further test deals with CHUK (human) (UniProt O15111). The test is described as above. As to conditions: compound 0.5 µM; ATP 10 µM.
Turning to `c1ccc(-c2n[nH]c3c2oc2ccccc23)cc1`, the residual activity was found to be 92.3%.
In the case of `CC#CC(=O)Nc1cc2c(Nc3ccc(F)c(Cl)c3)ncnc2cn1`, the residual activity stood at 92.1%.
For the compound `Nc1ncnc2c1c(-c1ccc(Oc3ccccc3)cc1)cn2C1CCCC1`, the residual activity was determined as 99.7%.

A further test addresses DAPK1 (human) (UniProt P53355). Described as above. As to conditions: compound 0.5 µM; ATP 10 µM.
As to `c1ccc(-c2n[nH]c3c2oc2ccccc23)cc1`, the residual activity is 71%.
The same measure, in the same setting: to `CC#CC(=O)Nc1cc2c(Nc3ccc(F)c(Cl)c3)ncnc2cn1` belongs 94.7%; to `Nc1ncnc2c1c(-c1ccc(Oc3ccccc3)cc1)cn2C1CCCC1`, 79.1%.

The target of another test is CSNK2A2 (human) (UniProt P19784). The test is described as above. Particulars: compound 0.5 µM; ATP 10 µM.
For `c1ccc(-c2n[nH]c3c2oc2ccccc23)cc1`, the residual activity came out at 85.6%.
For `CC#CC(=O)Nc1cc2c(Nc3ccc(F)c(Cl)c3)ncnc2cn1`, the residual activity turned out to be 96.5%.
As for `Nc1ncnc2c1c(-c1ccc(Oc3ccccc3)cc1)cn2C1CCCC1`, the residual activity stood at 74.7%.

The target of another test is FGFR1 (human) (UniProt P11362). The description is as above. As to conditions: compound 0.5 µM; ATP 10 µM.
Sequence of FGFR1 (human) (P11362 whole entry, looked up): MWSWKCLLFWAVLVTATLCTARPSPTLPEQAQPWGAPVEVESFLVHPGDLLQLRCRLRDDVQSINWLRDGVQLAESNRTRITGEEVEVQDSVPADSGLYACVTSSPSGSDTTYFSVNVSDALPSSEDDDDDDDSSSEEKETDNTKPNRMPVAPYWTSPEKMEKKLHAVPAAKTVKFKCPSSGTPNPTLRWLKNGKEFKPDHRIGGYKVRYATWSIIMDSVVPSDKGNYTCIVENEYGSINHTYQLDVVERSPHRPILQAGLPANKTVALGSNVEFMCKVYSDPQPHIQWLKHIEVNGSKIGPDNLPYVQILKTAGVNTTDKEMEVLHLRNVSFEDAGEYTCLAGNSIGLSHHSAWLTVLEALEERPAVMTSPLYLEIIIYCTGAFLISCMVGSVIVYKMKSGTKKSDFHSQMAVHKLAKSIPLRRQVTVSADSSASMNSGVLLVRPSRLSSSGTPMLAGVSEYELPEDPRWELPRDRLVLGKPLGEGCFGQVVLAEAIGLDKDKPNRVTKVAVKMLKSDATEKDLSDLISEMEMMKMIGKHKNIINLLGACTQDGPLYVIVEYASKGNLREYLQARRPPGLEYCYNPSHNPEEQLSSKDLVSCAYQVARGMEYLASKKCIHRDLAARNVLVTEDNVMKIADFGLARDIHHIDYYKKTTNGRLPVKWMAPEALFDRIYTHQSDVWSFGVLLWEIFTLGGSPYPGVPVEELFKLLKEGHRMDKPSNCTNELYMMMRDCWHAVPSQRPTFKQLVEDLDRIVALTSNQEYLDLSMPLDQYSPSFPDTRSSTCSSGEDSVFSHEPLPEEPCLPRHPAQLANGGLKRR
With `c1ccc(-c2n[nH]c3c2oc2ccccc23)cc1`, the residual activity amounted to 85.9%.
Same read-out and setting: to `CC#CC(=O)Nc1cc2c(Nc3ccc(F)c(Cl)c3)ncnc2cn1` belongs 91.1%; to `Nc1ncnc2c1c(-c1ccc(Oc3ccccc3)cc1)cn2C1CCCC1`, 77.4%.

Another test concerns the target MAP2K1 (human) (UniProt Q02750). Described as above. As to conditions: compound 0.5 µM; ATP 10 µM.
For `c1ccc(-c2n[nH]c3c2oc2ccccc23)cc1`, the residual activity was found to be 96.4%.
In the case of `CC#CC(=O)Nc1cc2c(Nc3ccc(F)c(Cl)c3)ncnc2cn1`, the residual activity turned out to be 95.3%.
For `Nc1ncnc2c1c(-c1ccc(Oc3ccccc3)cc1)cn2C1CCCC1`, the residual activity stood at 93%.

Another test has as its target NUAK1 (human) (UniProt O60285). Described as above. As to conditions: compound 0.5 µM; ATP 10 µM.
For the compound `c1ccc(-c2n[nH]c3c2oc2ccccc23)cc1`, the residual activity is 96.2%.
Take `CC#CC(=O)Nc1cc2c(Nc3ccc(F)c(Cl)c3)ncnc2cn1`: the residual activity was determined as 98.1%.
Regarding `Nc1ncnc2c1c(-c1ccc(Oc3ccccc3)cc1)cn2C1CCCC1`, the residual activity was found to be 87%.

In another test the target is PLK1 (human) (UniProt P53350). The test is described as above. Particulars: compound 0.5 µM; ATP 10 µM.
In the case of `c1ccc(-c2n[nH]c3c2oc2ccccc23)cc1`, the residual activity is 106%.
With `CC#CC(=O)Nc1cc2c(Nc3ccc(F)c(Cl)c3)ncnc2cn1`, the residual activity stood at 99.3%.
`Nc1ncnc2c1c(-c1ccc(Oc3ccccc3)cc1)cn2C1CCCC1`: the residual activity came to 100%.

The target in the next test is ROCK2 (human) (UniProt O75116). Described as above. Particulars: compound 0.5 µM; ATP 10 µM.
In the case of `c1ccc(-c2n[nH]c3c2oc2ccccc23)cc1`, the residual activity is 87.3%.
Consider `CC#CC(=O)Nc1cc2c(Nc3ccc(F)c(Cl)c3)ncnc2cn1`, for which the residual activity turned out to be 98.7%.
The same measure, in the same setting: to `Nc1ncnc2c1c(-c1ccc(Oc3ccccc3)cc1)cn2C1CCCC1` belongs 90.5%.

The target in the next test is ERBB4 (human) (UniProt Q15303). The description is as above. As to conditions: compound 0.5 µM; ATP 10 µM.
Take `c1ccc(-c2n[nH]c3c2oc2ccccc23)cc1`: the residual activity worked out at 89.7%.
For the compound `CC#CC(=O)Nc1cc2c(Nc3ccc(F)c(Cl)c3)ncnc2cn1`, the residual activity came to 1.95%.
Consider `Nc1ncnc2c1c(-c1ccc(Oc3ccccc3)cc1)cn2C1CCCC1`, for which the residual activity was found to be 11.9%.

For the next test, the target named is ACVR1B (human) (UniProt P36896). Described as above. As to conditions: compound 0.5 µM; ATP 10 µM.
Sequence of ACVR1B (human) (P36896 whole entry, looked up): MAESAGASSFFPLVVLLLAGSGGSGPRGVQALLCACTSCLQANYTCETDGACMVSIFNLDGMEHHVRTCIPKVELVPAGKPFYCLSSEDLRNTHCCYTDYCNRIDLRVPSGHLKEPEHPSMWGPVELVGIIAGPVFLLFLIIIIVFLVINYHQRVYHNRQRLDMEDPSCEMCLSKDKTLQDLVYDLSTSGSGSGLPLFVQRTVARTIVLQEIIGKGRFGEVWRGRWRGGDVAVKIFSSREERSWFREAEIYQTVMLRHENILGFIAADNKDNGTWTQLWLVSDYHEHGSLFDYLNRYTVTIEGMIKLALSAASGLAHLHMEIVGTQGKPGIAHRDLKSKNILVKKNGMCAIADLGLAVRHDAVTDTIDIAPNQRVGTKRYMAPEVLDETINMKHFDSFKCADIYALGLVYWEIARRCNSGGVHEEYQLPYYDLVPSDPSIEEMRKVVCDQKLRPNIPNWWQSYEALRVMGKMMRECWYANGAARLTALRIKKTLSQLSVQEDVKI
For the compound `c1ccc(-c2n[nH]c3c2oc2ccccc23)cc1`, the residual activity amounted to 96.6%.
In the case of `CC#CC(=O)Nc1cc2c(Nc3ccc(F)c(Cl)c3)ncnc2cn1`, the residual activity worked out at 104%.
`Nc1ncnc2c1c(-c1ccc(Oc3ccccc3)cc1)cn2C1CCCC1`: the residual activity was determined as 93.9%.

A further test concerns the target PKN2 (human) (UniProt Q16513). Described as above. Particulars: compound 0.5 µM; ATP 10 µM.
In the case of `c1ccc(-c2n[nH]c3c2oc2ccccc23)cc1`, the residual activity was 97.5%.
For `CC#CC(=O)Nc1cc2c(Nc3ccc(F)c(Cl)c3)ncnc2cn1`, the residual activity turned out to be 95%.
For the compound `Nc1ncnc2c1c(-c1ccc(Oc3ccccc3)cc1)cn2C1CCCC1`, the residual activity worked out at 104%.

Another test addresses WNK2 (human) (UniProt Q9Y3S1). Described as above. As to conditions: compound 0.5 µM; ATP 10 µM.
Take `c1ccc(-c2n[nH]c3c2oc2ccccc23)cc1`: the residual activity came to 102%.
On to `CC#CC(=O)Nc1cc2c(Nc3ccc(F)c(Cl)c3)ncnc2cn1`, for which the residual activity was 107%.
With `Nc1ncnc2c1c(-c1ccc(Oc3ccccc3)cc1)cn2C1CCCC1`, the residual activity came out at 102%.
